By inhibition is commonly meant the relative decrease from the control value, in per cent.

The values that follow come from patent US12122763B2, “Substituted piperidines for androgen receptor degradation” (UBIX THERAPEUTICS, INC., priority 2020, dated 2024).

The target of the assay is T1, Androgen Receptor (AR) protein (Homo sapiens, UniProt P10275, T878A).
T1 construct: endogenous in cells; host or cells: LNCaP
Nature of the assay: Androgen Receptor (AR) protein degradation assay in LNCaP cells, western blotting. The format is cell-based. The note with it: 20 h; for inhibition at 0.01 µM: 0.01 μM compound; for inhibition at 0.1 µM: 0.1 μM compound; for inhibition at 1 µM: 1 μM compound; for inhibition at 10 µM: 10 μM compound. In outline:
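AR protein level was detected by western blot (ECL) against GAPDH or β-actin controls, with 8 μg lysate protein loaded per lane after BCA quantification. Lysates came from LNCaP cells exposed to test compound for 20 h, following 3 days of growth in RPMI/10% FBS.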

T1 sequence (P10275 whole entry T878A): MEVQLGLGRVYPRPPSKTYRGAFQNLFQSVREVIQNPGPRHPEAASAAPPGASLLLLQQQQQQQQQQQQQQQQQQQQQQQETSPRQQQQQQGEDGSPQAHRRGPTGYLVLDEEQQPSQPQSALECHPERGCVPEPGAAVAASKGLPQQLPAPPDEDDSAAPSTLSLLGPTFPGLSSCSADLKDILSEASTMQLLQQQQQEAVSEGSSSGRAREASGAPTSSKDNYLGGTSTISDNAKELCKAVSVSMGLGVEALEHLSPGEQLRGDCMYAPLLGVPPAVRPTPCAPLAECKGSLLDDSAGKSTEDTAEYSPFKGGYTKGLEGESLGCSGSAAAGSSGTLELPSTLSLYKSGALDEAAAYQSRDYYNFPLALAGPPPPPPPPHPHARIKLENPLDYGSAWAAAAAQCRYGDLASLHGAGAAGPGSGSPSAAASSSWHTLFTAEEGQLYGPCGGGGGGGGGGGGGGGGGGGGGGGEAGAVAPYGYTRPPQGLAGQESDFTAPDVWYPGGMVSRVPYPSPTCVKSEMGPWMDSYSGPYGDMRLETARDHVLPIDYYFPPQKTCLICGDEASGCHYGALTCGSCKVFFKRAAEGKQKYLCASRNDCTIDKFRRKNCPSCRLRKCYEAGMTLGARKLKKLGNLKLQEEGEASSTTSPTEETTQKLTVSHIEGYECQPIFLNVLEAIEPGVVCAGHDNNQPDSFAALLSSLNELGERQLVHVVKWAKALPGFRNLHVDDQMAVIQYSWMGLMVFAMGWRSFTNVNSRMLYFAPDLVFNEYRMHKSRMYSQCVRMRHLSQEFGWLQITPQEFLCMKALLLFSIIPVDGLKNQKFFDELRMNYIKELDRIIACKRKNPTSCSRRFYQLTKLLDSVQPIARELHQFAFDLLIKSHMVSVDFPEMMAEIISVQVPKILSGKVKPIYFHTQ
T1 sequence (Q96SW2 whole entry partner): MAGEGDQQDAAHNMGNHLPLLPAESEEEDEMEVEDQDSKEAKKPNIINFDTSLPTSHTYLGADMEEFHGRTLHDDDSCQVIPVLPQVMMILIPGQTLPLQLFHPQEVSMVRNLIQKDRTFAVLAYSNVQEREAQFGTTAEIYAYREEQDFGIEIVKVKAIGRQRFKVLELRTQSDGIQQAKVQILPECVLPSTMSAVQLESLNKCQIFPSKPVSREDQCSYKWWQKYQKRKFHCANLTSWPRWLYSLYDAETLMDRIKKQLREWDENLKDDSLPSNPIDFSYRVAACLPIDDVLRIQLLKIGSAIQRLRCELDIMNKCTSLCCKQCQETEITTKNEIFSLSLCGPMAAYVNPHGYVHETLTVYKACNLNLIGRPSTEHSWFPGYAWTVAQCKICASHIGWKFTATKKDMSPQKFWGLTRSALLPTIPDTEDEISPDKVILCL

`N#Cc1ccc(N2CCC(C(=O)Nc3ccc(N4CCC(CCN5CC(N6CCN(c7ccc8c(n7)CN(C7CCC(=O)NC7=O)C8=O)CC6)C5)CC4)cn3)CC2)cc1C(F)(F)F` (centres unmarked) [Example 98, 1-(4-cyano-3-(trifluoromethyl)phenyl)-N-(5-(4-(2-(3-(4-(6-(2,6-dioxopiperidin-3-yl)-5-oxo-6,7-dihydro-5H-pyrrolo[3,4-b]pyridin-2-yl)piperazin-1-yl)azetidin-1-yl)ethyl)piperidin-1-yl)pyridin-2-yl)piperidine-4-carboxamide]: the inhibition at 0.01 µM was determined as 48%, the inhibition at 0.1 µM worked out at 89% and the inhibition at 1 µM is 76%.
For `N#Cc1ccc(N2CCC(C(=O)Nc3ccc(N4CCC(CCN5CCN(C6CN(c7ccc8c(c7)C(=O)N(C7CCC(=O)NC7=O)C8=O)C6)CC5)CC4)cn3)CC2)cc1C(F)(F)F` (centres unmarked) [Example 99, 1-(4-cyano-3-(trifluoromethyl)phenyl)-N-(5-(4-(2-(4-(1-(2-(2,6-dioxopiperidin-3-yl)-1,3-dioxoisoindolin-5-yl)azetidin-3-yl)piperazin-1-yl)ethyl)piperidin-1-yl)pyridin-2-yl)piperidine-4-carboxamide], the inhibition at 0.01 µM was 70%, the inhibition at 0.1 µM amounted to 98% and the inhibition at 1 µM turned out to be 96%.
On the same counts, the results for `N#Cc1ccc(N2CCC(C(=O)Nc3ccc(N4CCC(CCN5CCN(C6CN(c7ccc8c(n7)CN(C7CCC(=O)NC7=O)C8=O)C6)CC5)CC4)cn3)CC2)cc1C(F)(F)F` (centres unmarked) [Example 100, 1-(4-cyano-3-(trifluoromethyl)phenyl)-N-(5-(4-(2-(4-(1-(6-(2,6-dioxopiperidin-3-yl)-5-oxo-6,7-dihydro-5H-pyrrolo[3,4-b]pyridin-2-yl)azetidin-3-yl)piperazin-1-yl)ethyl)piperidin-1-yl)pyridin-2-yl)piperidine-4-carboxamide] are 31%, 84% and 89%.
In the case of `N#Cc1ccc(N2CCC(C(=O)Nc3ccc(N4CCC(CCN5CC6CN(c7ccc8c(c7)C(=O)N(C7CCC(=O)NC7=O)C8=O)CC6C5)CC4)cn3)CC2)cc1C(F)(F)F` (centres unmarked) [Example 101, 1-(4-cyano-3-(trifluoromethyl)phenyl)-N-(5-(4-(2-(5-(2-(2,6-dioxopiperidin-3-yl)-1,3-dioxoisoindolin-5-yl)hexahydropyrrolo[3,4-c]pyrrol-2(1H)-yl)ethyl)piperidin-1-yl)pyridin-2-yl)piperidine-4-carboxamide], the inhibition at 0.01 µM came out at 63%, the inhibition at 0.1 µM came out at 95% and the inhibition at 1 µM worked out at 95%.
With `CN(CCC1CCN(c2ccc(NC(=O)C3CCN(c4ccc(C#N)c(C(F)(F)F)c4)CC3)nc2)CC1)C1CCN(c2ccc3c(c2)C(=O)N(C2CCC(=O)NC2=O)C3=O)CC1` (centres unmarked) [Example 102, 1-(4-cyano-3-(trifluoromethyl)phenyl)-N-(5-(4-(2-((1-(2-(2,6-dioxopiperidin-3-yl)-1,3-dioxoisoindolin-5-yl)piperidin-4-yl)(methyl)amino)ethyl)piperidin-1-yl)pyridin-2-yl)piperidine-4-carboxamide], the inhibition at 0.01 µM came to 35%, the inhibition at 0.1 µM stood at 90% and the inhibition at 1 µM worked out at 92%.
`N#Cc1ccc(N2CCN(C(=O)Nc3ccc(N4CCC(CN5CC6(CCN(c7ccc8c(c7)C(=O)N(C7CCC(=O)NC7=O)C8=O)CC6)C5)CC4)nc3)CC2)cc1C(F)(F)F` (centres unmarked) [Example 103, 4-(4-cyano-3-(trifluoromethyl)phenyl)-N-(6-(4-((7-(2-(2,6-dioxopiperidin-3-yl)-1,3-dioxoisoindolin-5-yl)-2,7-diazaspiro[3.5]nonan-2-yl)methyl)piperidin-1-yl)pyridin-3-yl)piperazine-1-carboxamide]: the inhibition at 0.01 µM was -9%, the inhibition at 0.1 µM was 15%, the inhibition at 1 µM is 44% and the inhibition at 10 µM stood at 58%.
On to `N#Cc1ccc(N2CCN(C(=O)Nc3ccc(N4CCC(CN5CC6(CCN(c7ccc8c(c7)C(=O)N(C7CCC(=O)NC7=O)C8=O)CC6)C5)CC4)nc3)CC2)cc1Cl` (centres unmarked) [Example 104, 4-(3-chloro-4-cyanophenyl)-N-(6-(4-((7-(2-(2,6-dioxopiperidin-3-yl)-1,3-dioxoisoindolin-5-yl)-2,7-diazaspiro[3.5]nonan-2-yl)methyl)piperidin-1-yl)pyridin-3-yl)piperazine-1-carboxamide], for which the inhibition at 0.01 µM was -2%, the inhibition at 0.1 µM is -5%, the inhibition at 1 µM came out at 36% and the inhibition at 10 µM came to 59%.
In the case of `N#Cc1ccc(N2CCC(C(=O)Nc3ccc(N4CCC(CN5CCN(C6CCN(c7ccc(C(=O)NC8CCC(=O)NC8=O)nc7)CC6)CC5)CC4)cn3)CC2)cc1C(F)(F)F` (centres unmarked) [Example 105, 5-(4-(4-((1-(6-(1-(4-cyano-3-(trifluoromethyl)phenyl)piperidine-4-carboxamido)pyridin-3-yl)piperidin-4-yl)methyl)piperazin-1-yl)piperidin-1-yl)-N-(2,6-dioxopiperidin-3-yl)picolinamide], the inhibition at 0.01 µM turned out to be 43%, the inhibition at 0.1 µM was determined as 82% and the inhibition at 1 µM was 92%.
Consider `N#Cc1ccc(N2CCC(C(=O)Nc3ccc(N4CCC(CN5CCN(CC6CCN(c7ccc(C(=O)NC8CCC(=O)NC8=O)nc7)CC6)CC5)CC4)cn3)CC2)cc1C(F)(F)F` (centres unmarked) [Example 106, 5-(4-((4-((1-(6-(1-(4-cyano-3-(trifluoromethyl)phenyl)piperidine-4-carboxamido)pyridin-3-yl)piperidin-4-yl)methyl)piperazin-1-yl)methyl)piperidin-1-yl)-N-(2,6-dioxopiperidin-3-yl)picolinamide], for which the inhibition at 0.01 µM worked out at 32%, the inhibition at 0.1 µM came to 86% and the inhibition at 1 µM came to 96%.
For `N#Cc1ccc(N2CCC(C(=O)Nc3ccc(N4CCC(CCN5CCN(c6ccc(C(=O)NC7CCC(=O)NC7=O)nc6)CC5)CC4)cn3)CC2)cc1C(F)(F)F` (centres unmarked) [Example 107, 5-(4-(2-(1-(6-(1-(4-cyano-3-(trifluoromethyl)phenyl)piperidine-4-carboxamido)pyridin-3-yl)piperidin-4-yl)ethyl)piperazin-1-yl)-N-(2,6-dioxopiperidin-3-yl)picolinamide], the inhibition at 0.01 µM was 44%, the inhibition at 0.1 µM is 85% and the inhibition at 1 µM is 93%.
On the same counts, the results for `C[C@@H]1CN(CC2CCN(c3ccc(C(=O)NC4CCC(=O)NC4=O)nc3)CC2)CCN1CC1CCN(c2ccc(NC(=O)C3CCN(c4ccc(C#N)c(C(F)(F)F)c4)CC3)nc2)CC1` (stereo partly drawn) [Example 108, 5-(4-(((R)-4-((1-(6-(1-(4-cyano-3-(trifluoromethyl)phenyl)piperidine-4-carboxamido)pyridin-3-yl)piperidin-4-yl)methyl)-3-methylpiperazin-1-yl)methyl)piperidin-1-yl)-N-(2,6-dioxopiperidin-3-yl)picolinamide] are 51%, 85% and 89%.
